PMC8944975, “Secretin Receptor as a Target in Gastrointestinal Cancer: Expression Analysis and Ligand Development” (Biomedicines, 2022)
Read-outs that look alike come from different tables or passages of the source. Where a SMILES comes first, the peptide text is derived from it. Where no end group is shown, it is not given here. [ ]: non-standard residue; d: D form.

What was measured:
[1] = target: T1, human SCTR (Homo sapiens, UniProt P47872); assay: GloSensor cAMP assay, agonist mode; format: cell-based; set-up: expressed in transfected cells; settings: for Emax: read-out: cAMP Production, Intrinsic Activity
T1 sequence (P47872 23-440): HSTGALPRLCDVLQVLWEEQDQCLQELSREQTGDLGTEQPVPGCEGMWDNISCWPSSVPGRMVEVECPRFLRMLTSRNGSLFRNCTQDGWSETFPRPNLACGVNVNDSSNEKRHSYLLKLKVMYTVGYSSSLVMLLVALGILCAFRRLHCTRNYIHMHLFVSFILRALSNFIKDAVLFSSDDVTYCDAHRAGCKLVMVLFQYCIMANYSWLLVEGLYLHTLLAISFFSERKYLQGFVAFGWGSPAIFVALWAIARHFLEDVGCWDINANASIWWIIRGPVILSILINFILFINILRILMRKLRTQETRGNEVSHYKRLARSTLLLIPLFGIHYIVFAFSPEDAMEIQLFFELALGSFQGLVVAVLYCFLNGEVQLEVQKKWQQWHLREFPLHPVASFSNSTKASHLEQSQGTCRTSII
Method: Analysis of downstream signaling of activated SCTR via Gαs G-protein subunits was performed by monitoring intracellular cAMP utilizing the GloSensor system (Promega, Walldorf, Germany) in accordance with the supplier protocol. Measurements were performed using the EnVision Analyzer (PerkinElmer, Rodgau, Germany). For evaluation, concentration–response curves (signal-to-noise ratios plotted) employing the derived statistical mean and SD for estimation of the respective EC50 were calculated using Spotfire Decision Site (TIBCO, Palo Alto, CA, USA). For the analysis of antagonists, a modified protocol was used. Treatment of cells and dilution of the potential antagonist was performed as previously described. Ligand dilutions were added to cells and incubated at room temperature for 5 min. Successively, secretin was added at a final concentration of 0.5 nM for an additional 15 min at room temperature. The emitted chemiluminescence, which correlates with the cAMP concentration, was detected with suitable filters. Evaluation of data was performed as previously described with a calculation of half-maximal inhibitory concentration (IC50).

[2] = target: T1, human SCTR; assay: agonist-induced β-arr2-GFP translocation; format: cell-based; set-up: expressed in transfected cells; host or cells: U2OS (human osteosarcoma), stably co-transfected with β-arrestin2-GFP; settings: Supplementary Tables S1 and S2, decimal comma, '-' not detectable (Figure 4); for β-arrestin2-GFP agonism efficacy: % of wild-type secretin; for EC50: U2OS-SCTR/β-arr2-GFP cells, 20 min at 37 °C, mean of at least three independent experiments in duplicates, read-out: β-arrestin2-GFP agonism potency
Source text: (§1) U2OS-SCTR/β-arr2-GFP: human osteosarcoma cell line U2OS (purchased from ATCC/LGC Standards, Wesel, Germany) were stably transfected with plasmids encoding SCTR (Homo sapiens) and the fusion protein β-arrestin2-green fluorescent protein (GFP) (Rattus norvegicus-Aequorea victoria) (β-arr2-GFP).
To evaluate reactivity of human SCTR exposed to different ligand variants, intracellular translocation of a fusion protein of β-arrestin2 and green fluorescent protein was utilized. For evaluation of activation, receptor-mediated recruitment of cytoplasmic β-arr2-GFP was monitored through its translocation into condensed intracellular vesicles. The extent of translocation events was quantified by determining the increasing granularization of the intracellular fluorescence utilizing an automated high-throughput microscope in combination with computational algorithms to estimate potency (EC50) and efficacy, thus characterizing ligand-SCTR interaction. U2OS-SCTR/β-arr2-GFP cells were seeded in 96-well cell culture plates to 60–80% confluence. On the following day, preceding stimulation, cells were incubated for one hour in serum-free medium. Ligand variants were applied as serial dilutions in assay buffer C1. After preincubation, supernatant was discarded by tapping plates overhead repeatedly. For stimulation, 50 µL of ligand dilution was applied per well in duplicates and incubated for 20 min at 37 °C. Successively, cells were fixed by applying 4% buffered formaldehyde (Herbeta Arzneimittel, Berlin, Germany) for 10 min at room temperature and consecutively permeabilized for 10 min at room temperature with 0.1% TritonX-100 in PBS, containing DAPI (4′,6-Diamidin-2-phenylindol, SigmaAldrich, Deisenhofen, Germany, 1 µg/mL) to counterstain nuclei. Microscopic images were recorded by an IN Cell Analyzer 1000 (GE Healthcare, Reading, UK) with 20× magnification at 5 frames per well in a 96-well format. Image processing was performed with IN Cell Investigator software (GE Healthcare, Reading, UK), applying the provided granularity algorithm. The output of the analysis was indicated as vesicle area/cell and was utilized for calculation of concentration–response curves. Parameters derived from curve fitting included the concentration of half-maximal activity (EC50), and intrinsic activity. Intrinsic activity was normalized defining reaction to non-modified wild type secretin as the 100% curve maximum value.

[3] = target: T1, human SCTR; assay: β-arr2-GFP translocation assay run in antagonist mode; format: cell-based; set-up: expressed in transfected cells; host or cells: U2OS (human osteosarcoma), stably co-transfected with β-arrestin2-GFP; for IC50, inhibition of β-arr2-GFP translocation (Table 3): peptide 5 min at 37 °C
Source text: as §1
For analysis of antagonistic effects on SCTR, a slightly modified protocol of the β-arr2-GFP translocation was used. […] For analysis, cells were terminally fixed and permeabilized as previously described. The additional monitoring of IDCC fluorescence in the near-infrared channel (667 nm) provided another measure for receptor binding and activation.

[4] = target: human secretin receptor (SCTR) (human, UniProt P47872 23-440); assay: cell-based or functional assay
human secretin receptor (SCTR), sequence (P47872 23-440): as above

[5] = Supplementary Table S2, GloSensor system, at least three independent experiments in duplicates, decimal comma, read-out: cAMP agonism potency
[6] = read-out: IC50, inhibition of β-arr2-GFP translocation (Table 2)
[7] = GloSensor cAMP assay, at least 3 independent experiments in duplicates

HSDGTFTSELSRLREGARLQRLLQG [Peptide 98]
EC50 [1, 5]: 1.55 nM
β-arrestin2-GFP agonism efficacy [2]: 104,47 % Sec
EC50 [2]: 26.5 nM

CC(C)C[C@H](NC(=O)CNC(=O)[C@H](CCC(N)=O)NC(=O)[C@H](CC(C)C)NC(=O)[C@H](CC(C)C)NC(=O)[C@H](CCCNC(=N)N)NC(=O)[C@H](CCC(N)=O)NC(=O)[C@H](CC(C)C)NC(=O)[C@H](CCCNC(=N)N)NC(=O)[C@H](C)NC(=O)CNC(=O)[C@H](CCC(=O)O)NC(=O)[C@H](CCCNC(=N)N)NC(=O)[C@H](CC(C)C)NC(=O)[C@H](CCCNC(=N)N)NC(=O)[C@H](CO)NC(=O)[C@H](CC(C)C)NC(=O)[C@H](CCC(=O)O)NC(=O)[C@H](CO)NC(=O)[C@@H](NC(=O)[C@H](Cc1ccccc1)NC(=O)[C@@H](NC(=O)CNC(=O)[C@H](CC(=O)O)NC(=O)[C@@H](N)CO)[C@@H](C)O)[C@@H](C)O)C(=O)N[C@H](C(=O)O)C(C)C [Peptide 115]
EC50 [1, 5]: 22 nM
IC50 [3, 6]: 1280 ± 703 nM

CC(C)C[C@H](NC(=O)CNC(=O)[C@H](C)NC(=O)[C@H](CC(C)C)NC(=O)[C@H](CC(C)C)NC(=O)[C@H](CCCNC(=N)N)NC(=O)[C@H](CCC(N)=O)NC(=O)[C@H](CC(C)C)NC(=O)[C@H](CCCNC(=N)N)NC(=O)[C@H](C)NC(=O)CNC(=O)[C@H](CCC(=O)O)NC(=O)[C@H](CCCNC(=N)N)NC(=O)[C@H](CC(C)C)NC(=O)[C@H](CCCNC(=N)N)NC(=O)[C@H](CO)NC(=O)[C@H](CC(C)C)NC(=O)[C@H](CCC(=O)O)NC(=O)[C@H](CO)NC(=O)[C@@H](NC(=O)[C@H](Cc1ccccc1)NC(=O)[C@H](N)CCCNC(=N)N)[C@@H](C)O)C(=O)N[C@H](C(=O)O)C(C)C [Peptide 143]
Emax [1, 7]: 27.5 ± 8.8%

CC(C)C[C@H](NC(=O)CNC(=O)[C@H](CCC(N)=O)NC(=O)[C@H](CC(C)C)NC(=O)[C@H](CC(C)C)NC(=O)[C@H](CCCNC(=N)N)NC(=O)[C@H](CCC(N)=O)NC(=O)[C@H](CC(C)C)NC(=O)[C@H](CCCNC(=N)N)NC(=O)[C@H](C)NC(=O)CNC(=O)[C@H](CCC(=O)O)NC(=O)[C@H](CCCNC(=N)N)NC(=O)[C@H](CC(C)C)NC(=O)[C@H](CCCNC(=N)N)NC(=O)[C@H](CO)NC(=O)[C@H](CC(C)C)NC(=O)[C@H](CCC(=O)O)NC(=O)[C@H](CO)NC(=O)[C@@H](NC(=O)[C@H](Cc1ccccc1)NC(=O)[C@@H](NC(=O)CN)[C@@H](C)O)[C@@H](C)O)C(=O)N[C@H](C(=O)O)C(C)C [Peptide 117]
EC50 [1, 5]: 166 nM
IC50 [3, 6]: 1920 ± 355 nM

HSDGTFTSELSRLREGARLQRLL [Peptide 100]
EC50 [1, 5]: 7.63 nM
β-arrestin2-GFP agonism efficacy [2]: 92,23 % Sec
EC50 [2]: 131 nM

HSDGTFTSELSRLREGARLQRLLQGL [Peptide 97]
EC50 [1, 5]: 0.51 nM
β-arrestin2-GFP agonism efficacy [2]: 109,53 % Sec
EC50 [2]: 8.8 nM

HSDGTFTSELSRLREGARLQRL [Peptide 101]
EC50 [1, 5]: 57 nM

CC(C)C[C@H](NC(=O)[C@H](C)NC(=O)[C@H](CCC(N)=O)NC(=O)[C@H](CC(C)C)NC(=O)[C@H](CC(C)C)NC(=O)[C@H](CCCNC(=N)N)NC(=O)[C@H](CCC(N)=O)NC(=O)[C@H](CC(C)C)NC(=O)[C@H](CCCNC(=N)N)NC(=O)[C@H](C)NC(=O)CNC(=O)[C@H](CCC(=O)O)NC(=O)[C@H](CCCNC(=N)N)NC(=O)[C@H](CC(C)C)NC(=O)[C@H](CCCNC(=N)N)NC(=O)[C@H](CO)NC(=O)[C@H](CC(C)C)NC(=O)[C@H](CCC(=O)O)NC(=O)[C@H](CO)NC(=O)[C@@H](NC(=O)[C@H](Cc1ccccc1)NC(=O)[C@H](N)CCCNC(=N)N)[C@@H](C)O)C(=O)N[C@H](C(=O)O)C(C)C [Peptide 144]
Emax [1, 7]: 31.1 ± 2.2%

CC(C)C[C@H](NC(=O)CNC(=O)[C@H](CCC(N)=O)NC(=O)[C@H](CC(C)C)NC(=O)[C@H](CC(C)C)NC(=O)[C@H](CCCNC(=N)N)NC(=O)[C@H](CCC(N)=O)NC(=O)[C@H](CC(C)C)NC(=O)[C@H](CCCNC(=N)N)NC(=O)[C@H](C)NC(=O)CNC(=O)[C@H](CCC(=O)O)NC(=O)[C@H](CCCNC(=N)N)NC(=O)[C@H](CC(C)C)NC(=O)[C@H](CCCNC(=N)N)NC(=O)[C@H](CO)NC(=O)[C@H](CC(C)C)NC(=O)[C@H](CCC(=O)O)NC(=O)[C@H](CO)NC(=O)[C@@H](N)[C@@H](C)O)C(=O)N[C@H](C(N)=O)C(C)C [Peptide 120]
Emax [1, 7]: 90.6 ± 11.5%
EC50 ([1]; GloSensor cAMP assay, at least 3 independent experiments in duplicates, read-out: cAMP Production, EC50): 3370 ± 1570 nM
IC50 [3, 6]: > 3000 nM
IC50 ([3]; read-out: Inhibition of β-arr2-GFP Translocation, IC50): > 3000 nM

HSDGTFTSELSRLREGARLQRLLQ [Peptide 99]
EC50 [1, 5]: 2.09 nM
β-arrestin2-GFP agonism efficacy [2]: 103,60 % Sec
EC50 [2]: 35.9 nM

CC(C)C[C@H](NC(=O)CNC(=O)[C@H](CCC(N)=O)NC(=O)[C@H](CC(C)C)NC(=O)[C@H](CC(C)C)NC(=O)[C@H](CCCNC(=N)N)NC(=O)[C@H](CCC(N)=O)NC(=O)[C@H](CC(C)C)NC(=O)[C@H](CCCNC(=N)N)NC(=O)[C@H](C)NC(=O)CNC(=O)[C@H](CCC(=O)O)NC(=O)[C@H](CCCNC(=N)N)NC(=O)[C@H](CC(C)C)NC(=O)[C@H](CCCNC(=N)N)NC(=O)[C@H](CO)NC(=O)[C@H](CC(C)C)NC(=O)[C@H](CCC(=O)O)NC(=O)[C@@H](N)CO)C(=O)N[C@H](C(=O)O)C(C)C [Peptide 121]
EC50 [1, 5]: > 10000 nM
IC50 [3, 6]: 2730 ± 60 nM

CC(C)C[C@H](NC(=O)CNC(=O)[C@H](CCC(N)=O)NC(=O)[C@H](CC(C)C)NC(=O)[C@H](CC(C)C)NC(=O)[C@H](CCCNC(=N)N)NC(=O)[C@H](CCC(N)=O)NC(=O)[C@H](CC(C)C)NC(=O)[C@H](CCCNC(=N)N)NC(=O)[C@H](C)NC(=O)[C@H](C)NC(=O)[C@H](CCC(=O)O)NC(=O)[C@H](CCCNC(=N)N)NC(=O)[C@H](CC(C)C)NC(=O)[C@H](CCCNC(=N)N)NC(=O)[C@H](CO)NC(=O)[C@H](CC(C)C)NC(=O)[C@H](CCC(=O)O)NC(=O)[C@H](CO)NC(=O)[C@@H](NC(=O)[C@H](Cc1ccccc1)NC(=O)[C@H](N)CCCNC(=N)N)[C@@H](C)O)C(=O)N[C@H](C(=O)O)C(C)C [Peptide 136]
Emax [1, 7]: 33.6 ± 0.9%

HSDGTFTSELSRLREGARLQ [Peptide 103]
EC50 [1, 5]: 875 nM

CC(C)C[C@H](NC(=O)CNC(=O)[C@H](CCC(N)=O)NC(=O)[C@H](CC(C)C)NC(=O)[C@H](CC(C)C)NC(=O)[C@H](CCCNC(=N)N)NC(=O)[C@H](CCC(N)=O)NC(=O)[C@H](CC(C)C)NC(=O)[C@H](CCCNC(=N)N)NC(=O)[C@H](C)NC(=O)CNC(=O)[C@H](CCC(=O)O)NC(=O)[C@H](CCCNC(=N)N)NC(=O)[C@H](C)NC(=O)[C@H](CCCNC(=N)N)NC(=O)[C@H](CO)NC(=O)[C@H](CC(C)C)NC(=O)[C@H](CCC(=O)O)NC(=O)[C@H](CO)NC(=O)[C@@H](NC(=O)[C@H](Cc1ccccc1)NC(=O)[C@H](N)CCCNC(=N)N)[C@@H](C)O)C(=O)N[C@H](C(=O)O)C(C)C [Peptide 133] (H-[dR]FTSELSRAREGARLQRLLQGLV-OH)
IC50 ([3]; read-out: IC50, inhibition of β-arr2-GFP translocation (Table 3)): 884 ± 169 nM

HSDGTFTSELSRLREGARLQR [Peptide 102]
EC50 [1, 5]: 586 nM

[dR]FTSELSRLREAARLQRLLQGLV (ends and bridges not checked) [peptide 136]
cAMP production (GloSensor), agonist mode: intrinsic activity [% of secretin] [4]: 33.6%
